Measured values taken from the CheMixHub ionic liquid set.

Experiment: xn = mol fraction of the nth substance listed

CC[n+]1ccn(C)c1.F[B-](F)(F)F + CCCCCC[n+]1ccn(C)c1.F[B-](F)(F)F
101 kPa, x1 = 1
Details	viscosity [mPa·s]
299.15 K	34.52
308.15 K	25.54

CCCCCCCCCCCCCC[P+](CCCCCC)(CCCCCC)CCCCCC.[c-]1nc[nH]n1 + CCCCCC[n+]1ccn(C)c1.O=S(=O)([N-]S(=O)(=O)C(F)(F)F)C(F)(F)F
viscosity [mPa·s], 100 kPa
Details	278.15 K	283.15 K	288.15 K	293.15 K	298.15 K	303.15 K	308.15 K	313.15 K	318.15 K	323.15 K
x2 = 0.1	5162	3302	2162	1458	1013	720	524	389	296	229
x2 = 0.195	4777	3062	2000	1349	930	664	484	359	273	211
x2 = 0.282	4094	2612	1719	1162	810	579	422	314	239	185
x2 = 0.378	3093	1992	1317	900	633	456	337	253	194	152
x2 = 0.493	2209	1445	970	677	485	355	267	204	159	127
x2 = 0.6	1397	940	641	452	329	245	186	145	115	93
x2 = 0.693	910	619	431	308	227	171	132	104	83	67
x2 = 0.792	612	424	301	220	165	127	99	79	64	53
x2 = 0.893	325	235	174	132	103	81	65	54	–	–

CO + CCCC[N+]1(C)CCCC1.O=S(=O)([N-]S(=O)(=O)C(F)(F)F)C(F)(F)F
Details	viscosity [mPa·s]
293.15 K, 101 kPa, x2 = 0	0.74

CCC(O)CO (configuration not stated) + CCCC[N+](C)(C)C.O=S(=O)([N-]S(=O)(=O)C(F)(F)F)C(F)(F)F
Details	viscosity [mPa·s]
328.15 K, 101 kPa, x1 = 1	10.3
